The test system of one test is REV-ERB. In words: Luciferase-based assay of REV-ERB mediated transcriptional regulation (RevRE/SV40-CLuc reporter in HEK-293 cells). It is filed as cell-based. Conditions: HEK-293 cells transfected with RevRE reporter and REV-ERBα and/or β; read 24 h post-transfection; read-out: REV-ERB antagonism EC50. An excerpt: Luciferase-Base Assay to Assess the Activity of the Compounds on REV-ERB Mediated Transcriptional Regulation
In order to assess the effect of the compounds of the invention on REV-ERB activity the inventors exploited the ability of REV-ERB to repress gene transcription of a specific DNA cis-element. In fact, the DNA binding domain (DBD) of REV-ERB recognizes specific DNA sequences (called RevREs=Rev-erb Responsive Elements) which contains an AGGTCA motif linked in 5′ to an A/T rich sequence harboring the following consensus: A/T A A/T N T (Harding et al., Mol Cell Biol., 1993; 13:3113).
Therefore, two repetitions of the RevRE consensus AGAATGTAGGTCA (SEQ ID NO: 13) upstream a SV40 promoter driving the expression of a reporter gene were cloned. As reported, the luciferase enzyme from the ostracod Cypridina noctiluca was adopted. […] Cypridina luciferase (CLuc) is secreted from cells by virtue of its natural signal peptide and its luminescence can be measured from the supernatant of transfected cells. Therefore, cell lysis is not necessary. Secreted CLuc is a very stable protein. Because of this property, the activity measured from the supernatant reflects the amount of protein accumulated up to the time of sampling. Multiple samples can therefore be obtained from the same transfected cells, allowing an easy set-up of time-course experiments. In addition, the direct use of the supernatant makes the system easily prone to automation for High Throughput Screening.
In order to normalize the experiment for the transfection efficiency, it was used a plasmid containing a SV40 promoter driving the expression of a secreted form of human alkaline phosphatase (SEAP), which enzymatic activity in the supernatant can be measured with chemiluminescence substrates.
To be able to rule out false-positive, for example due to the interference of the compounds to be tested with the fluorescence and/or chemiluminescence reactions, it was used as control a mutated version of the RevRE (GAGCCCGTAGGTCA) (SEQ ID NO: 14) that is no longer able to bind REV-ERB DBD (Harding et al., Mol Cell Biol., 1993; 13:3113).
The person skilled in the art will appreciate that an agonist will improve the ability of REV-ERB to repress the transcription, reducing the luminescence signal, while an antagonist will produce the opposite effect.
For the assay, HEK-293 cells were transfected with the reporter vectors and a plasmid expressing the REV-ERBα and/or β protein. After 6 h from transfection, the medium was replaced with fresh medium containing different doses of the compounds or vehicle (DMSO). After 24 h post-transfection, the supernatant was analyzed for the secreted luciferase and AP activity according to the manufacture instruction. Data normalized as fold activation versus vehicle (DMSO) were fitted using a four-parameter dose-response curve to calculate the EC50 of the different compounds.
(§1) The different compounds were tested for their ability to inhibit the growth of the tumorigenic breast cancer cells BT-474 and for their antagonistic activity toward REV-ERB transcriptional repression, as described in the biological method section.
For the cell growth inhibition (GI) the growth inhibition 50 (GI50) and the growth inhibition max (GImax) are reported. […] The bottom plateaus of the curve was used to calculate the Growth Inhibition max (GImax), defined as the percentage of the reduction of cells after 48 h upon a saturating dose of the administered compound. Compounds with a GI50<100 μM were also tested for their antagonistic activity toward REV-ERB. […]

For test [1], the system named is tumorigenic breast cancer cells BT-474. In words: Growth inhibition assay (CyQUANT Cell Proliferation Assay) in BT-474 cells. It is filed as cell-based. Conditions: Homo sapiens; for GI50: 48 h, CyQUANT, read-out: Cell Growth Inibition GI50; for Emax: reduction of cells after 48 h at saturating dose, read-out: Cell Growth Inibition GImax.
Excerpt: Given that REV-ERB target genes include several metabolic regulators, such as Pgc-1α and Nampt, it was decided to test the cell proliferation with a method that is independent from the metabolic state of the cell.
The CyQUANT® Cell Proliferation Assay Kit (Invitrogen) was used, an assay that has a linear detection range extending from 50 or fewer to at least 250,000 cells.
Frozen cells are simply thawed and lysed by addition of a buffer containing the CyQUANT®.
For the assay, tumorigenic breast cancer cells BT-474 cells were seeded at 2500 cells per well in a 96-well plate and incubated over-night at 37° C. Then, fresh medium containing different concentration of the compounds or vehicle (DMSO) was added and cells were growth 48 h at 37° C. Finally, cells were frozen at […] and then processed according to the manufacture instructions. A minimum of triplicate data for each dose was used for the analysis.
Data were collected and analyzed with Prism 5 software to calculate the growth inhibition curve.
In particular, values obtained from the DMSO treated cells was set at 100% of growth. Data from treatment of cells with serial dilutions of the compounds were normalized versus the DMSO group and fitted using a four-parameter dose-response curve.
GI50 was calculated as the concentration of compound that gives a response half way between bottom and top plateaus of the fitted curve.
The bottom plateaus of the fitted curve was used to calculate the Growth Inhibition max (GImax), defined as the percentage of the reduction of cells after 48 h upon a saturating dose of compound.
as §1
For the cell growth inhibition (GI) the growth inhibition 50 (GI50) and the growth inhibition max (GImax) are reported. […] The bottom plateaus of the curve was used to calculate the Growth Inhibition max (GImax), defined as the percentage of the reduction of cells after 48 h upon a saturating dose of the administered compound. Compounds with a GI50<100 μM were also tested for their antagonistic activity toward REV-ERB. For these compounds, the EC50 value is provided, calculated as the concentration of compound that gives a response half between the bottom (expression of the reporter in absence of compound) and the top (expression of the reporter at saturating doses of compound) plateaus of the fitted curves (see biological method section for a description of the reported assay). n.d.=not determined; n.t.=not tested.

Where a name gives a salt, the structure may show the parent alone.

With `Oc1ccc(CNC2(c3ccccc3F)CCCC2)cc1CN1CCCCC1` [Example 2, 4-[[[1-(2-Fluorophenyl)cyclopentyl]amino]methyl]-2-(1-piperidylmethyl)phenol dihydrochloride], the EC50 in the test with REV-ERB is 45 µM. Also, in test [1], the 50% growth inhibitory concentration (GI50) came to 30 µM and the Emax came out at 55%.

Turning to `CN1CCN(Cc2cc(CNC3(c4ccccc4F)CCCCC3)ccc2O)CC1` [Example 3, 4-[[[1-(2-Fluorophenyl)cyclohexyl]amino]methyl]-2-[(4-methylpiperazin-1-yl)methyl]phenol trihydrochloride], the EC50 with REV-ERB is 20 µM. Also, in test [1], the concentration for 50% growth inhibition (GI50) turned out to be 14 µM and the Emax was found to be 95%.

`CN1CCN(Cc2cccc(CNC3(c4ccccc4F)CCCC3)c2)CC1` [Example 4, 1-(2-Fluorophenyl)-N-[[3-[(4-methylpiperazin-1-yl)methyl]phenyl]methyl]-cyclopentanamine trihydrochloride]: the EC50 in the test with REV-ERB was 47 µM. Also, in test [1], the GI50 came to 30 µM and the Emax is 73%.

Take `COc1ccc(CNC2(c3ccccc3F)CCCC2)cc1CN1CCN(C)CC1` [Example 5, 1-(2-Fluorophenyl)-N-[[4-methoxy-3-[(4-methylpiperazin-1-yl)methyl]-phenyl]methyl]cyclopentanamine trihydrochloride]: the EC50 with REV-ERB came out at 43 µM. Besides, in test [1], the GI50 worked out at 26 µM and the Emax is 75%.

As for `CN1CCN(Cc2cc(CNC3(c4ccccc4)CCCC3)ccc2O)CC1` [Example 7, 2-[(4-Methylpiperazin-1-yl)methyl]-4-[[(1-phenylcyclopentyl)amino]methyl]-phenol trihydrochloride], the concentration giving a half-maximal response (EC50) with REV-ERB turned out to be 24 µM. Besides, in test [1], the GI50 worked out at 18 µM and the Emax came out at 70%.

Turning to `Oc1ccc(CNC2(c3ccccc3F)CCCC2)cc1CN1CCN(c2ccccc2)CC1` [Example 9, 4-[[[1-(2-Fluorophenyl)cyclopentyl]amino]methyl]-2-[(4-phenylpiperazin-1-yl)methyl]phenol trihydrochloride], in the test on REV-ERB, the EC50 came to 50 µM. For the same molecule, in test [1], the concentration for 50% growth inhibition (GI50) turned out to be 30 µM and the Emax amounted to 50%.

For `CCN1CCN(Cc2cc(CNC3(c4ccccc4F)CCCC3)ccc2O)CC1` [Example 10, 2-[(4-Ethylpiperazin-1-yl)methyl]-4-[[[1-(2-fluorophenyl)cyclopentyl]amino]-methyl]phenol trihydrochloride], in the test on REV-ERB, the 50% effective concentration (EC50) came to 25 µM. In addition, in test [1], the 50% growth inhibitory concentration (GI50) was found to be 15 µM and the Emax was found to be 70%.

In the case of `Oc1ccc(CNC2(c3ccccc3F)CCCC2)cc1CN1CCNCC1` [Example 11, 4-[[[1-(2-Fluorophenyl)cyclopentyl]amino]methyl]-2-(piperazin-1-ylmethyl)-phenol], in the test on REV-ERB, the concentration for a half-maximal effect (EC50) turned out to be 40 µM. Also, in test [1], the GI50 was 24 µM and the Emax amounted to 70%.

Turning to `Oc1ccc(CNC2(c3ccccc3F)CCCC2)cc1CN1CCN(Cc2ccccc2)CC1` [Example 12, 2-[(4-Benzylpiperazin-1-yl)methyl]-4-[[[1-(2-fluorophenyl)cyclopentyl]amino]-methyl]phenol trihydrochloride], in the test with REV-ERB, the EC50 was found to be 40 µM. In test [1], the GI50 came out at 23 µM and the Emax is 77%.

As for `COc1ccccc1C1(NCc2ccc(O)c(CN3CCN(C)CC3)c2)CCCC1` [Example 14, 4-{[1-(2-Methoxy-phenyl)-cyclopentyl-amino]-methyl}-2-(4-methylpiperazin-1-ylmethyl)-phenol trihydrochloride], the 50% effective concentration (EC50) in the test with REV-ERB came to 23 µM. Moreover, in test [1], the GI50 is 19 µM and the Emax turned out to be 82%.

As to `CN1CCN(Cc2cc(CNC3(c4ccccc4F)CCC(F)(F)CC3)ccc2O)CC1` [Example 17, 4-[[[4,4-difluoro-1-(2-fluorophenyl)cyclohexyl]amino]methyl]-2-[(4-methyl-piperazin-1-yl)methyl]phenol trihydrochloride], in the test with REV-ERB, the EC50 came out at 21 µM. Moreover, in test [1], the GI50 is 18 µM and the Emax was determined as 90%.

Regarding `CN1CCC(Cc2cccc(CNC3(c4ccccc4F)CCCC3)c2)CC1` [Example 18, 1-(2-fluorophenyl)-N-[[3-[1-methyl-4-piperidyl)methyl]phenyl]methyl]cyclopentanamine dihydrochloride], in the test with REV-ERB, the EC50 was determined as 8 µM. Further, in test [1], the GI50 is 2 µM and the Emax came out at 95%.

With `CN1CCC(Cc2cccc(CN(C)C3(c4ccccc4F)CCCC3)c2)CC1` [Example 19, 1-(2-fluorophenyl)-N-methyl-N-[[3-[(1-methyl-4-piperidyl)methyl]phenyl]methyl]cyclopentanamine dihydrochloride], in the test on REV-ERB, the half-maximal effective concentration (EC50) was found to be 11 µM. In test [1], the GI50 came out at 5 µM and the Emax turned out to be 90%.

On to `CN1CCN(Cc2cc(CNC3(c4ccccc4F)CCN(Cc4ccccc4)CC3)ccc2O)CC1` [Example 20, 4-[[[1-Benzyl-4-(2-fluorophenyl)-4-piperidyl]amino]methyl]-2-[(4-methylpiperazin-1-yl)methyl]phenol tetrahydrochloride], for which the EC50 in the test on REV-ERB is 12 µM. In test [1], the GI50 came out at 11 µM and the Emax stood at 92%.

For `Fc1ccccc1C1(NCc2cccc(CN3CCCCC3)c2)CCCC1` [Example 21, 1-(2-Fluorophenyl)-N-[[3-(1-piperidylmethyl)phenyl]methyl]cyclopentanamine dihydrochloride], in the test with REV-ERB, the EC50 was 35 µM. In test [1], the concentration for 50% growth inhibition (GI50) was 50 µM and the Emax amounted to 76%.

As for `CN1CCN(Cc2cc(CNC3(c4cccc(F)c4)CCCC3)ccc2O)CC1` [Example 22, 4-[[[1-(3-Fluorophenyl)cyclopentyl]amino]methyl]-2-[(4-methylpiperazin-1-yl)methyl]phenol trihydrochloride], in the test with REV-ERB, the EC50 turned out to be 15 µM. Also, in test [1], the GI50 turned out to be 14 µM and the Emax turned out to be 80%.

Take `CN1CCN(Cc2cc(CNC3(c4ccc(F)cc4)CCCC3)ccc2O)CC1` [Example 23, 4-[[[1-(4-Fluorophenyl)cyclopentyl]amino]methyl]-2-[(4-methylpiperazin-1-yl)methyl]phenol trihydrochloride]: the 50% effective concentration (EC50) in the test on REV-ERB is 10 µM. In addition, in test [1], the GI50 was determined as 10 µM and the Emax came to 90%.

For the origin of these results see patent US9949968B2, “Diarylalkylamine REV-ERB antagonists and their use as medicaments” (FONDAZIONE ISTITUTO ITALIANO DI TECNOLOGIA, priority 2013, dated 2018).
